Measurements published in US11046647B2, “Activators of the unfolded protein response” (The Board of Trustees of the University of Illinois, priority 2018, dated 2021).

Columns and labels:
[1] = system: protein synthesis in Caov-3 cells; test: Protein synthesis inhibition (35S-methionine incorporation), Caov-3; type: cell-based, human; conditions: 1,000 nM
Protocol: ERα positive Caov-3, human ovarian cancer cells, were treated for the indicated times with 1,000 nM BHPI or 1,000 nM (−)-105. Cells were briefly labeled with ^35S-methionine. Incorporation of labeled ^35S-methionine into protein was determined by trichloroacetic acid precipitation and trapping of precipitated protein, but not free amino acids, in small Whatman hardened ashless filters. After solubilizing the protein in the filters with base and neutralization with acid, the samples were counted in a liquid scintillation counter. Shown is the average (n≥3) percent inhibition of protein synthesis compared to the 0-time sample. The near quantitative inhibition of protein synthesis by (−)-105 is consistent with (−)-105 inducing lethal hyperactivation of the PERK arm of the UPR. Even non-growing cells are constantly degrading protein and making new proteins. Cells in which nearly all (>90%) of protein synthesis is inhibited cannot grow and will ultimately die.

T47D cells = conditions: 100, 500 and 1,000 nM; 24 hours; n=1
Protocol: One such change is loss of plasma membrane polarity. This is monitored using Annexin V. Dying cells also take up the dye propidium iodide. Propidium iodide (PI) fluoresces when it is intercalated into DNA. These assays monitor cells at specific stages of cell death.
FLOW CYTOMETRY (FITC) ASSAYS: Cells were seeded in 12-well plates, 75,000 cells/well, and allowed to adhere overnight. The next day, the indicated concentrations of raptinal (positive control), (−)-105, (±)-105, and (+)-105 were added and allowed to incubate at 37° C. for 24 hours (Final Volume: 1 ml, 0.1% DMSO). After incubation, cells were harvested and resuspended in 350 μl of cold Annexin binding buffer (10 mM HEPES, 140 mM NaCl, 2.5 mM CaCl2, pH 7.4) premixed with Annexin V-FITC and PI dyes. Samples were analyzed on a BD Biosciences LSRII flow cytometer, and data analysis was performed using FSC Express Version 5-6. Cell death was assessed relative to a DMSO treated control.
T47D, human breast cancer cells were plated at 75,000 cells/well. The next day, DMSO vehicle, 10 μM raptinal (control for 100% cell death), or 0, 50, 100 500 and 1,000 nM of BHPI or (±)-105, or 1,000 nM ICI/fulvestrant or 1,000 nM OHT was added. After 24 hours viable cells were determined by FACS using annexin V-FITC and propidium iodide dyes. (n=3 independent experiments ±SEM).
75,000 ERα positive T47D, human breast cancer cells, were plated/well. The next day, DMSO vehicle, 10 μM raptinal (control for 100% cell death), or 100 500 and 1,000 nM of (+)-105, or (−)-105 was added. After 24 hours viable cells were determined by FACS using annexin V-FITC and propidium iodide dyes. (n=1).

[2] = system: panel of cancer cell lines; test: Alamar blue 24-hour IC50 against a panel of cancer cell lines; type: cell-based; conditions: Homo sapiens, average
Protocol: FIG. 36. Discovery of SERK-F6 (also known as, C(−)-105, (−)-105, (R)-105, (−)-1, or (R)-1), a compound that kills ERα-positive cancer cells, a, Chemical structures of BHPI and racemic compound 1 (i.e. (±)-1), and their cytotoxic activity on T47D breast cancer cells after 24-hour incubations with concentrations as indicated in nM. Cells were stained with annexin V-FITC and PI dyes prior to analysis via flow cytometry. […] Cells were incubated with SERK-F6 or positive control, Raptinal, for 24 hours and then stained with annexin V-FITC and PI dyes and analyzed via flow cytometry. […] Cell viability was measured by Alamar blue fluorescence and set relative to a vehicle control and a quantitative dead control treated with Raptinal. […] Cell number was determined by MTS.
FIG. 40. […] Concentration was determined via LC/MS/MS analysis. […] Concentrations were determined via LC/MS/MS analysis. […]
Cell lines: ERα positive breast cancer: T47D, MCF-7 TYS (T47D Y537S) TDG (T47D D538G), BT-474; ERα negative MDA-MB-231 breast cancer cells; 6,000 cells/well were plated (96 well plate) in 100 μl of medium. […] After 2-4 hours fluorescence in the wells was read (λex: 555 nm, λem: 585 nm, Spectra Max M3 Plate reader). % relative death was determined by setting the reading for 10,000 nM raptinal-treated cells to 100% dead cells and the reading for vehicle-treated cells to 0% dead cells. […]

MDG-luc. cells = test: Metastatic model, MDG-luc cells injected into the tail-vein; type: in vivo, mouse; conditions: daily dosing
Excerpt: FIG. 41. SERK-F6 eradicates mutant ERα primary and metastatic breast cancer. a-c, TYS-luc. orthotopic tumors were established in NSG ovariectomized mice (no E2 pellet, 60 days to establish) and dosed daily as indicated (n=5-6). b, representative examples of bioluminescence images of SERK-F6 treated mice (7 days). d,e, TDG-luc. orthotopic tumors were established in NSG ovariectomized mice (no E2 pellet, 120 days to establish) and dosed daily as indicated (n=4-5). e, Bioluminescence image of SERK-F6 treated mouse with TDG-luc. tumor burden after 7 days. f, MYS-luc. orthotopic tumors were established in NSG ovariectomized mice (no E2 pellet, 45 days to establish) and dosed daily as indicated (n=4-5). g, MDG-luc. orthotopic tumors were established in NSG ovariectomized mice (no E2 pellet, 45 days to establish) and dosed daily as indicated (n=4-5). h, Metastatic model with MDG-luc. cells injected into the tail-vein of NSG ovariectomized mice (no E2 pellet, 1.5 months to establish) and mice were dosed daily as indicated (n=4-5).

Which results are given for `O=C1Nc2c(C(F)(F)F)cccc2C1(c1ccc(O)cc1)c1ccc(OC(F)(F)F)cc1` (single isomer, unassigned; (-)) [(−)-105, 3-(4-hydroxyphenyl)-3-(4-(trifluoromethoxy)phenyl)-7-(trifluoromethyl)indolin-2-one]?
inhibition of the synthesis of new proteins [1]: near-quantitative; activity of enantiomers (cell death) (T47D cells): active; IC50 [2]: 42 nM; metastatic tumor burden (MDG-luc. cells): eradicates metastatic tumor burden
